In patent US8895504B2, “Amylin derivatives” (priority 2008, dated 2014) one finds EC50 data, which are given here for six molecules.

Each structure is given as a SMILES string. *1 amine or outer side, *2 acyl side, *3 side chain or, on linkers, in order; H or OH if unused. Where a SMILES comes first, the peptide text is derived from it. Bridges are numbered along the chain shown (N, C = ends). The star is where a group is joined. C20 diacid = O=C(O)CCCCCCCCCCCCCCCCCCC(=O)*; C18 diacid = O=C(O)CCCCCCCCCCCCCCCCC(=O)*; PEG8 = NCCOCCOCCOCCOCCOCCOCCOCCOCCC(=O)O; γGlu = O=C(O)[C@H](CCC(=O)[*:2])N[*:1]

This assay has as its target T1, Amylin 3(a) receptor (human calcitonin receptor (CTa) and RAMP-3) (Homo sapiens, UniProt O60896+P30988).
T1 construct: expressed in transfected cells; host or cells: BHK570 cells, stably transfected with a CRE-luciferase reporter
As to the kind of experiment: Luciferase assay (III), BHK Amylin 3(a)//CRE-luc cells. It is filed as cell-based. To be noted: BHK cells with Amylin 3(a) receptor and CRE luciferase reporter, 4 hours incubation; read-out: Potency Luciferase. The gist of the method: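 BHK570 cells stably expressing CTa, RAMP-3 and a CRE-luciferase reporter, seeded at about 20,000 cells/well and grown overnight. Cells were exposed to standard or sample for 4 h at 37° C in phenol red-free DMEM with 10% FBS and 10 mM Hepes, pH 7,4. Luminescence was read after 30 min LucLite at room temperature.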
(In a reporter assay the amount or activity of a reporter protein is the signal.)

T1 sequence (O60896 24-148): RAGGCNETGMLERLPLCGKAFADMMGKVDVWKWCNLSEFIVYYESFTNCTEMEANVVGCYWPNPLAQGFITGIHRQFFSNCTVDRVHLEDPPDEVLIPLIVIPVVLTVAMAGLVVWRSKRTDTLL
T1 sequence (P30988 25-474): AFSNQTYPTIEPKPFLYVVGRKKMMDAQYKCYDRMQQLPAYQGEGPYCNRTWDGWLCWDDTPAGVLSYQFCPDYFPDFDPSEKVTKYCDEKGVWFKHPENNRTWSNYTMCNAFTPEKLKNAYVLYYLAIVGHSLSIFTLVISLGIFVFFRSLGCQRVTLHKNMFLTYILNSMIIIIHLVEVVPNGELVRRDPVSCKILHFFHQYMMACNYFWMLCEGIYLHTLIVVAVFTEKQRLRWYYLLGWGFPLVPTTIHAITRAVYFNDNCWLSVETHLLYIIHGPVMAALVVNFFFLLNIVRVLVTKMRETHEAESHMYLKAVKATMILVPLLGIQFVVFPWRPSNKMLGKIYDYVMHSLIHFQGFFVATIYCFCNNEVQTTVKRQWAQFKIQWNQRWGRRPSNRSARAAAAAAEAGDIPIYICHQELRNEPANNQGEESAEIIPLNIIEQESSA

For `CC(C)C[C@H](NC(=O)[C@H](CCCNC(=N)N)NC(=O)[C@H](CCC(N)=O)NC(=O)[C@@H](NC(=O)[C@H](C)NC(=O)[C@@H]1CSSC[C@H](NC(=O)[C@H](CCC(=O)O)NC(=O)[C@H](CCCNC(=N)N)NC(=O)[C@H](CCC(=O)O)NC(=O)CC[C@H](NC(=O)CCCCCCCCCCCCCCCCCCC(=O)O)C(=O)O)C(=O)N[C@@H](CC(N)=O)C(=O)N[C@@H]([C@@H](C)O)C(=O)N[C@@H](C)C(=O)N[C@@H]([C@@H](C)O)C(=O)N1)[C@@H](C)O)C(=O)N[C@@H](C)C(=O)N[C@@H](CC(=O)O)C(=O)N[C@@H](Cc1ccccc1)C(=O)N[C@@H](CC(C)C)C(=O)N[C@@H](Cc1c[nH]cn1)C(=O)N[C@@H](Cc1c[nH]cn1)C(=O)N[C@@H](CO)C(=O)N[C@@H](CO)C(=O)N[C@@H](CCC(N)=O)C(=O)N[C@@H](CC(N)=O)C(=O)N[C@@H](Cc1ccccc1)C(=O)NCC(=O)N[C@@H](C)C(=O)N1CCC[C@H]1C(=O)N[C@@H](CC(C)C)C(=O)N[C@@H](CO)C(=O)N[C@@H](CO)C(=O)N[C@H](C(=O)N[C@@H](CC(N)=O)C(=O)N[C@H](C(=O)NCC(=O)N[C@@H](CO)C(=O)N[C@@H](CC(N)=O)C(=O)N[C@H](C(=O)N[C@@H](Cc1ccc(O)cc1)C(N)=O)[C@@H](C)O)C(C)C)[C@@H](C)O` [Example 48, N-alpha-[(S)-4-Carboxy-4-(19-carboxynonadecanoylamino)butyryl]-Glu-Arg-[Glu1,Asp14,His17,Gln21,Ala25,Pro26,Ser28,Ser29]-pramlintide] ({C20 diacid-γGlu}-ERECNTATCATQRLADFLHHSSQNFGAPLSSTNVGSNTY-NH2; disulfide 4-9), the EC50 stood at 0.06 nM.

On to `CC[C@H](C)[C@H](NC(=O)[C@@H]1CCCN1C(=O)CNC(=O)[C@H](Cc1ccccc1)NC(=O)[C@H](CC(N)=O)NC(=O)[C@H](CC(N)=O)NC(=O)[C@H](CO)NC(=O)[C@H](CO)NC(=O)[C@H](Cc1c[nH]cn1)NC(=O)[C@H](CCCNC(=N)N)NC(=O)[C@H](CC(C)C)NC(=O)[C@H](Cc1ccccc1)NC(=O)[C@H](CC(N)=O)NC(=O)[C@H](C)NC(=O)[C@H](CC(C)C)NC(=O)[C@H](CCCNC(=N)N)NC(=O)[C@H](CCC(N)=O)NC(=O)[C@@H](NC(=O)[C@H](C)NC(=O)[C@@H]1CSSC[C@H](NC(=O)[C@H](CCC(=O)O)NC(=O)[C@H](CCC(=O)O)NC(=O)CC[C@H](NC(=O)CCCCCCCCCCCCCCCCCCC(=O)O)C(=O)O)C(=O)N[C@@H](CC(N)=O)C(=O)N[C@@H]([C@@H](C)O)C(=O)N[C@@H](C)C(=O)N[C@@H]([C@@H](C)O)C(=O)N1)[C@@H](C)O)C(=O)N[C@@H](CC(C)C)C(=O)N1CCC[C@H]1C(=O)N1CCC[C@H]1C(=O)N[C@H](C(=O)N[C@@H](CC(N)=O)C(=O)N[C@H](C(=O)NCC(=O)N[C@@H](CO)C(=O)N[C@@H](CC(N)=O)C(=O)N[C@H](C(=O)N[C@@H](Cc1ccc(O)cc1)C(N)=O)[C@@H](C)O)C(C)C)[C@@H](C)O` [Example 49, N-alpha-[(S)-4-Carboxy-4-(19-carboxynonadecanoylamino)butyryl]-Glu-[Glu1,Arg17]-pramlintide] ({C20 diacid-γGlu}-EECNTATCATQRLANFLRHSSNNFGPILPPTNVGSNTY-NH2; disulfide 3-8), for which the EC50 was 0.3 nM.

`CC[C@H](C)[C@H](NC(=O)[C@@H]1CCCN1C(=O)CNC(=O)[C@H](Cc1ccccc1)NC(=O)[C@H](CC(N)=O)NC(=O)[C@H](CC(N)=O)NC(=O)[C@H](CO)NC(=O)[C@H](CO)NC(=O)[C@H](Cc1c[nH]cn1)NC(=O)[C@H](Cc1c[nH]cn1)NC(=O)[C@H](CC(C)C)NC(=O)[C@H](Cc1ccccc1)NC(=O)[C@H](CC(N)=O)NC(=O)[C@H](C)NC(=O)[C@H](CC(C)C)NC(=O)[C@H](CCCNC(=N)N)NC(=O)[C@H](CCC(N)=O)NC(=O)[C@@H](NC(=O)[C@H](C)NC(=O)[C@@H]1CSSC[C@H](NC(=O)[C@H](CCC(=O)O)NC(=O)[C@H](CCC(=O)O)NC(=O)CC[C@H](NC(=O)CCCCCCCCCCCCCCCCCCC(=O)O)C(=O)O)C(=O)N[C@@H](CC(N)=O)C(=O)N[C@@H]([C@@H](C)O)C(=O)N[C@@H](C)C(=O)N[C@@H]([C@@H](C)O)C(=O)N1)[C@@H](C)O)C(=O)N[C@@H](CC(C)C)C(=O)N1CCC[C@H]1C(=O)N1CCC[C@H]1C(=O)N[C@H](C(=O)N[C@@H](CC(N)=O)C(=O)N[C@H](C(=O)NCC(=O)N[C@@H](CO)C(=O)N[C@@H](CC(N)=O)C(=O)N[C@H](C(=O)N[C@@H](Cc1ccc(O)cc1)C(N)=O)[C@@H](C)O)C(C)C)[C@@H](C)O` [Example 50, N-alpha-[(S)-4-Carboxy-4-(19-carboxynonadecanoylamino)butyryl]-Glu-[Glu1,His17]-pramlintide] ({C20 diacid-γGlu}-EECNTATCATQRLANFLHHSSNNFGPILPPTNVGSNTY-NH2; disulfide 3-8): the EC50 was determined as 0.3 nM.

On to `CC[C@H](C)[C@H](NC(=O)[C@@H]1CCCN1C(=O)CNC(=O)[C@H](Cc1ccccc1)NC(=O)[C@H](CC(N)=O)NC(=O)[C@H](CC(N)=O)NC(=O)[C@H](CO)NC(=O)[C@H](CO)NC(=O)[C@H](Cc1c[nH]cn1)NC(=O)[C@H](Cc1c[nH]cn1)NC(=O)[C@H](CC(C)C)NC(=O)[C@H](Cc1ccccc1)NC(=O)[C@H](CC(N)=O)NC(=O)[C@H](C)NC(=O)[C@H](CC(C)C)NC(=O)[C@H](CCCNC(=N)N)NC(=O)[C@H](CCC(N)=O)NC(=O)[C@@H](NC(=O)[C@H](C)NC(=O)[C@@H]1CSSC[C@H](NC(=O)[C@H](CCC(=O)O)NC(=O)CC[C@H](NC(=O)CCCCCCCCCCCCCCCCCCC(=O)O)C(=O)O)C(=O)N[C@@H](CC(N)=O)C(=O)N[C@@H]([C@@H](C)O)C(=O)N[C@@H](C)C(=O)N[C@@H]([C@@H](C)O)C(=O)N1)[C@@H](C)O)C(=O)N[C@@H](CC(C)C)C(=O)N1CCC[C@H]1C(=O)N1CCC[C@H]1C(=O)N[C@H](C(=O)N[C@@H](CC(N)=O)C(=O)N[C@H](C(=O)NCC(=O)N[C@@H](CO)C(=O)N[C@@H](CC(N)=O)C(=O)N[C@H](C(=O)N[C@@H](Cc1ccc(O)cc1)C(N)=O)[C@@H](C)O)C(C)C)[C@@H](C)O` [Example 51, N-alpha-[(S)-4-Carboxy-4-(19-carboxynonadecanoylamino)butyryl]-[Glu 1,His17]-pramlintide] ({C20 diacid-γGlu}-ECNTATCATQRLANFLHHSSNNFGPILPPTNVGSNTY-NH2; disulfide 2-7), for which the EC50 is 0.2 nM.

For `CC[C@H](C)[C@H](NC(=O)[C@@H]1CCCN1C(=O)CNC(=O)[C@H](Cc1ccccc1)NC(=O)[C@H](CC(N)=O)NC(=O)[C@H](CC(N)=O)NC(=O)[C@H](CO)NC(=O)[C@H](CO)NC(=O)[C@H](Cc1c[nH]cn1)NC(=O)[C@H](Cc1c[nH]cn1)NC(=O)[C@H](CC(C)C)NC(=O)[C@H](Cc1ccccc1)NC(=O)[C@H](CC(N)=O)NC(=O)[C@H](C)NC(=O)[C@H](CC(C)C)NC(=O)[C@H](CCCNC(=N)N)NC(=O)[C@H](CCC(N)=O)NC(=O)[C@@H](NC(=O)[C@H](C)NC(=O)[C@@H]1CSSC[C@H](NC(=O)[C@H](CCCNC(=N)N)NC(=O)CCOCCOCCOCCOCCOCCOCCOCCOCCNC(=O)CC[C@H](NC(=O)CCCCCCCCCCCCCCCCC(=O)O)C(=O)O)C(=O)N[C@@H](CC(N)=O)C(=O)N[C@@H]([C@@H](C)O)C(=O)N[C@@H](C)C(=O)N[C@@H]([C@@H](C)O)C(=O)N1)[C@@H](C)O)C(=O)N[C@@H](CC(C)C)C(=O)N1CCC[C@H]1C(=O)N1CCC[C@H]1C(=O)N[C@H](C(=O)N[C@@H](CC(N)=O)C(=O)N[C@H](C(=O)NCC(=O)N[C@@H](CO)C(=O)N[C@@H](CC(N)=O)C(=O)N[C@H](C(=O)N[C@@H](Cc1ccc(O)cc1)C(N)=O)[C@@H](C)O)C(C)C)[C@@H](C)O` [Example 52, N-alpha-[3-(2-{2-[2-(2-{2-[2-(2-{2-[(S)-4-Carboxy-4-(17-carboxyheptadecanoylamino)butyrylamino]ethoxy}ethoxy)ethoxy]ethoxy}ethoxy)ethoxy]ethoxy}ethoxy)propionylamino][Arg1,His17]-pramlintide] ({C18 diacid-γGlu-PEG8}-RCNTATCATQRLANFLHHSSNNFGPILPPTNVGSNTY-NH2; disulfide 2-7), the EC50 worked out at 0.08 nM.

In the case of `CC[C@H](C)[C@H](NC(=O)[C@@H]1CCCN1C(=O)CNC(=O)[C@H](Cc1ccccc1)NC(=O)[C@H](CC(N)=O)NC(=O)[C@H](CC(N)=O)NC(=O)[C@H](CO)NC(=O)[C@H](CO)NC(=O)[C@H](Cc1c[nH]cn1)NC(=O)[C@H](Cc1c[nH]cn1)NC(=O)[C@H](CC(C)C)NC(=O)[C@H](Cc1ccccc1)NC(=O)[C@H](CC(N)=O)NC(=O)[C@H](C)NC(=O)[C@H](CC(C)C)NC(=O)[C@H](CCCNC(=N)N)NC(=O)[C@H](CCC(N)=O)NC(=O)[C@@H](NC(=O)[C@H](C)NC(=O)[C@@H]1CSSC[C@H](NC(=O)CC[C@H](NC(=O)CCCCCCCCCCCCCCCCCCC(=O)O)C(=O)O)C(=O)N[C@@H](CC(N)=O)C(=O)N[C@@H]([C@@H](C)O)C(=O)N[C@@H](C)C(=O)N[C@@H]([C@@H](C)O)C(=O)N1)[C@@H](C)O)C(=O)N[C@@H](CC(C)C)C(=O)N1CCC[C@H]1C(=O)N1CCC[C@H]1C(=O)N[C@H](C(=O)N[C@@H](CC(=O)O)C(=O)N[C@H](C(=O)NCC(=O)N[C@@H](CO)C(=O)N[C@@H](CC(N)=O)C(=O)N[C@H](C(=O)N[C@@H](Cc1ccc(O)cc1)C(N)=O)[C@@H](C)O)C(C)C)[C@@H](C)O` [Example 53, N-alpha-[(S)-4-Carboxy-4-(19-carboxynonadecanoylamino)butyryl]-[His17,Asp31]-pramlintide (2-37)] ({C20 diacid-γGlu}-CNTATCATQRLANFLHHSSNNFGPILPPTDVGSNTY-NH2; disulfide 1-6), the EC50 came out at 0.06 nM.
